Test results as given in patent US20210340572A1, “HIGH-CONTENT IMAGING OF MICROFLUIDIC DEVICES” (EMULATE, Inc., priority 2019, published 2021).
One block for each molecule: values may come before it.

Experiments:
[1] = test system: microfluidic devices seeded with human liver cells; assay: Albumin secretion, microfluidic devices seeded with human liver cells; assay type: cell-based
Description: Prior to cell seeding, microfluidic devices, in this case S-1 Chips (Emulate, Inc. Boston, Mass., USA), were functionalized using Emulate's proprietary protocols and reagents (ERT™), including those described herein. After surface functionalization, both channels of the microfluidic device were coated with species-specific extracellular matrices (ECM). For the human bound microfluidic device, a mixture of collagen type I (Corning, Corning, N.Y., USA) and fibronectin, e.g. bovine, (Gibco) was used; for the rat bound microfluidic devices a mixture of collagen type IV, e.g. human placenta, (Sigma-Aldrich, St. Louis, Mo., USA) and fibronectin (Gibco) was used; for the dog bound microfluidic devices a mixture of collagen I (Corning), collagen type IV (Sigma-Aldrich), and fibronectin (Gibco) was used. […] For the dual-cell culture model (hepatocytes and endothelial cells), the LSECs were seeded at a concentration of 2-4 million cells/mL in the lower vascular channel. […] After cell seeding, the upper channel of the microfluidic device was maintained in William's E Medium (WEM) containing Glutamax (Gibco), ITS+(Corning), dexamethasone (Sigma-Aldrich), ascorbic acid (Sigma-Aldrich), fetal bovine serum (FBS) (Sigma-Aldrich), and Penicillin/Streptomycin (Sigma-Aldrich). The vascular channel of the microfluidic device was maintained with species-specific endothelial media (Emulate, Inc.). Two days after seeding, the microfluidic devices were connected to the Human Emulation System™ (Emulate, Inc.), as described in part herein, and both of the microfluidic device channels were perfused at 30 μL/hr to provide a continuous supply of fresh media for the duration of the experiments. Albumin secretion from the upper channel was quantified using ELISA kits for human, rat, and dog models effluent samples (human and rat: Abcam; dog: Immunology Consultants Laboratory, Inc., Portland, Oreg., USA) and the assays were performed according to the protocol provided by each vendor.

[2] = test system: microfluidic devices seeded with rat liver cells; assay: Albumin secretion / hepatocyte function, microfluidic devices seeded with rat liver cells; assay type: cell-based; conditions: rat quadruple-cell chips, 1, 10, 30 μM
Description: Prior to cell seeding, microfluidic devices, in this case S-1 Chips (Emulate, Inc. Boston, Mass., USA), were functionalized using Emulate's proprietary protocols and reagents (ERT™), including those described herein. After surface functionalization, both channels of the microfluidic device were coated with species-specific extracellular matrices (ECM). For the human bound microfluidic device, a mixture of collagen type I (Corning, Corning, N.Y., USA) and fibronectin, e.g. bovine, (Gibco) was used; for the rat bound microfluidic devices a mixture of collagen type IV, e.g. human placenta, (Sigma-Aldrich, St. Louis, Mo., USA) and fibronectin (Gibco) was used; for the dog bound microfluidic devices a mixture of collagen I (Corning), collagen type IV (Sigma-Aldrich), and fibronectin (Gibco) was used. […] For the dual-cell culture model (hepatocytes and endothelial cells), the LSECs were seeded at a concentration of 2-4 million cells/mL in the lower vascular channel. […] Albumin secretion from the upper channel was quantified using ELISA kits for human, rat, and dog models effluent samples (human and rat: Abcam; dog: Immunology Consultants Laboratory, Inc., Portland, Oreg., USA) and the assays were performed according to the protocol provided by each vendor.

[3] = test system: microfluidic devices seeded with human liver cells; assay: DILI biomarker release (alpha-GST, miR-122, keratin 18) from human chips; assay type: cell-based
Description: Exemplary Biomarker, e.g. DILI: Keratin 18 levels were quantified in human model effluent samples from both the hepatocyte and vascular channels using the M65 EpiDeath CK18 ELISA Kit (DiaPharma, Detroit, Mich., USA). The assay was run following the vendor protocol using a standard curve ranging from 0-5,000 U/L. Additionally, a standard curve ranging from 0-500 U/L was generated independently for quality control.
Exemplary Biomarker, e.g. DILI: Alpha Glutathione S-Transferase (α-GST) levels were quantified in human model effluent samples from the upper channel using an ELISA kit (DiaPharma). The assay was run following the vendor protocol using a standard curve ranging from 0-64 μg/L. Additionally, a standard curve ranging from 0-50 μg/L was generated independently for quality control.
Exemplary Biomarker, e.g. DILI: Mir-122: Isolation of micro-RNAs was performed on upper and lower chamber eluates using Qiagen's (Hilden, Germany) miRNA isolation kit for serum and plasma. A total volume of 50 μL was used for isolation. Isolation was performed according to manufacturer's protocol using a 56.5 pM oligonucleotide spike-in control. Samples were eluted with 14 μL RNase-free water. Reverse transcription was performed using Thermo Fisher Scientific's TaqMan™ MicroRNA Reverse Transcription Kit according to the manufacturer's protocol. A total reaction volume of 15 μL was used. Real-time PCR was performed using Thermo Fisher Scientific's TaqMan™ Micro-RNA Assays according to manufacturer's protocol. A total reaction volume of 10 μl was used. Normalized rrCt was used for fold-change analysis.

[4] = test system: microfluidic devices seeded with human liver cells; assay: Cytokine release (IL-6, MCP-1, IP-10) from the vascular channel of human chips; assay type: cell-based; conditions: for release of cytokines/chemokines including IP-10: treated chips; for IL-6 release / MCP-1 release: 14 days
Procedure: Cytokines: Release of IL-6, MCP-1, and IP-10 from the vascular channel was quantified using U-PLEX biomarker human assays (Meso Scale Diagnostics, Rockville, Md., USA) and the assays were performed according to the protocol provided by the vendor.

[5] = test system: microfluidic devices seeded with human liver cells; assay: Lipid accumulation (Nile red / AdipoRed) in human chips; assay type: cell-based
Description: (§1) Microfluidic devices seeded with liver cells were stained in the upper channel with 5(6)-Carboxy-2′,7′-dichlorofluorescein diacetate (CDFDA) (ThermoFisher) to visualize bile canaliculi and MRP2 activity, cholyl-lysyl-fluorescein (CLF) (Corning) to visualize bile canaliculi and BSEP activity, Nile red (ThermoFisher) or AdipoRed (Lonza) to visualize lipid droplet accumulation, Tetramethylrhodamine, methyl ester (TMRM) (ThermoFisher) to visualize active mitochondria, and CellROX® (ThermoFisher) to visualize cellular oxidative stress. Each staining solution was prepared in blank medium or compound dosing medium and added to the upper channel, incubated for 15 minutes at 37° C., and washed three times with medium. The stained microfluidic devices were imaged using a specific filter, and were de-blurred with Olympus cellSens software. Using ImageJ-Fiji, the fluorescent channel images were histogram adjusted to remove background, followed by fluorescence quantification using the Integrated Density calculation function.
(§2) The stained microfluidic devices were imaged using the TRITC filter, and were de-blurred with Olympus cellSens software. Using ImageJ-Fiji, the fluorescent channel images were histogram adjusted to remove background, followed by fluorescence quantification using the Integrated Density calculation function. N=5 FOVs per microfluidic device were analyzed for conditions: vehicle (0.1% DMSO), FIAU dosing groups, and MTX dosing groups.

[6] = test system: microfluidic devices seeded with rat liver cells; assay: Lipid accumulation (Nile red) in rat chips; assay type: cell-based; conditions: rat chips, 1, 10, 30 μM, 10 days
Description: as §1, with “The stained microfluidic devices were imaged using a specific filter, and were de-blurred with Olympus cellSens software.” left out
as §2

[7] = cited from earlier work
[8] = test system: hepatocytes in microfluidic devices seeded with human liver cells; assay: Hepatocyte morphology (bright-field) in human chips; assay type: cell-based; conditions: quadruple-cell human chips, daily administration 7 days
stellate cells = assay: Stellate cell activation (alpha-SMA) in human chips; assay type: cell-based
Procedure: Microfluidic devices seeded with liver cells and static sandwich plate cultures were fixed with 4% paraformaldehyde for 15 minutes at room temperature, washed with PBS, and permeabilized (saponin 1% with 10% serum in PBS). Blocking and incubation with the primary antibodies (overnight in PBS containing 1% BSA or PBS containing 10% serum and 1% BSA) was followed by a two-hour incubation with secondary antibodies (Cell Signaling, Danvers, Mass., USA) in the same blocking buffer. Immunostaining was performed with specific primary antibodies (anti-MRP2, anti-stabilin-1, anti-BSEP, anti-α-SMA, anti-CD68; Abcam, Cambridge, Mass., USA) and images were acquired with either an Olympus fluorescence microscope (IX83) or Zeiss confocal microscope (AxiovertZ1 LSM880).
The number of CD68- or α-SMA-positive cells in the vascular channel in each group was counted in each field of view ([…]) and quantified.
The fluorescent channel (588) was first background subtracted and processed using the median filter of Image J. After processing, the signal was thresholded using adaptive thresholding function of Image J (Otsu method) to extract fluorescent regions and to measure the relative intensity of the fluorescent signal. N=4 to 6 FOVs per microfluidic device from each microfluidic device were analyzed. […]

[9] = test system: microfluidic devices seeded with human liver cells; assay: ROS levels (CellROX) in human chips; assay type: cell-based; conditions: TAK-875, up to 15 days
MRP2 = target: T1, MRP2 (Homo sapiens, UniProt Q92887); assay: Biliary efflux of MRP2 substrate CDFDA in human chips; assay type: cell-based; conditions: TAK-875 3, 10, 30 μM, up to 15 days
T1 construct: Primary rat, dog or human hepatocytes were cultured in the upper parenchymal channel; endogenous in cells; host or cells: primary human hepatocytes in a microfluidic Liver-Chip

[10] = test system: microfluidic devices seeded with human liver cells; assay: Mitochondrial membrane potential (TMRM) in human chips; assay type: cell-based; conditions: TAK-875 3, 10, 30 μM, 8 or 15 days
Description: as §1

T1 sequence (Q92887 whole entry): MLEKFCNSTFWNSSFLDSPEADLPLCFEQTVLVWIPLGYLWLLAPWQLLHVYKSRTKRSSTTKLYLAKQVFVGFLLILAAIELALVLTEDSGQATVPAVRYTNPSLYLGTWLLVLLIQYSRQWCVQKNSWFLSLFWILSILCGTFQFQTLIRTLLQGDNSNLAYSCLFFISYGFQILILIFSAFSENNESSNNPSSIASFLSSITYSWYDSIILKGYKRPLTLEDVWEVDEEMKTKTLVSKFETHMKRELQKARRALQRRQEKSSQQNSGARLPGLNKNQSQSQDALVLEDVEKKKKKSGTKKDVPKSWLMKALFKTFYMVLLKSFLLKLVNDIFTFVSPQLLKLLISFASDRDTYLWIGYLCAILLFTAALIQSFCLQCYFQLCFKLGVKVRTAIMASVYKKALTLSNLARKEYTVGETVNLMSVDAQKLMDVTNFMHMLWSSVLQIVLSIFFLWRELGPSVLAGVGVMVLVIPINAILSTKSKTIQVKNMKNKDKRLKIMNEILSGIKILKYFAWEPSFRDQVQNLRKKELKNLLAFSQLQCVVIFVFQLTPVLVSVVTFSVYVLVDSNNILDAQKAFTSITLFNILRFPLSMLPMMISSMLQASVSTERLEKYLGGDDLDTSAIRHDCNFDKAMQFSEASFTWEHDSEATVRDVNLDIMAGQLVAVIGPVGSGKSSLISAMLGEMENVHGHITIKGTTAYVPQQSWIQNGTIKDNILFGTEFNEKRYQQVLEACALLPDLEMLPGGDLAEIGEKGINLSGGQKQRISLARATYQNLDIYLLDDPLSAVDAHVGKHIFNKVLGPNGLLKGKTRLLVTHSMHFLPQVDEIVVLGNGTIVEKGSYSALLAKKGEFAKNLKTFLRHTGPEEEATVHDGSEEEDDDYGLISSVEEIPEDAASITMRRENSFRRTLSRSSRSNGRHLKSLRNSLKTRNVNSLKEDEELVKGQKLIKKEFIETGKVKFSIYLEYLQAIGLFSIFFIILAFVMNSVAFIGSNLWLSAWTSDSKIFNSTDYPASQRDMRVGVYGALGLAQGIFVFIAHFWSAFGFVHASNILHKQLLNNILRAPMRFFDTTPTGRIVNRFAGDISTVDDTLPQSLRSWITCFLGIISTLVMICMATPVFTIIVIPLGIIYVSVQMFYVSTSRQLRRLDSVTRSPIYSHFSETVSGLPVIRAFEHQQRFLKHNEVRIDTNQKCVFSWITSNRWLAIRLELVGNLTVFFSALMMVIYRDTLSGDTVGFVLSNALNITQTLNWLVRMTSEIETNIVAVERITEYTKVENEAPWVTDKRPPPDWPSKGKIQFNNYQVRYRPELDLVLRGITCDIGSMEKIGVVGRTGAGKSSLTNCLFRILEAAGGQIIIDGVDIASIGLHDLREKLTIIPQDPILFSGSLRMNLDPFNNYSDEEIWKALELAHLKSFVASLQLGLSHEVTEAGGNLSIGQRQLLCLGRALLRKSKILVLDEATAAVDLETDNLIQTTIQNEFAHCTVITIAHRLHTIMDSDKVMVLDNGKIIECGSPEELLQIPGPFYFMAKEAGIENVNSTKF

Structure (SMILES): O=c1[nH]c(=O)n([C@@H]2O[C@H](CO)[C@@H](O)[C@@H]2F)cc1I [FIAU, fialuridine]
concentrations with dose-dependent decline in albumin secretion ([1]; quadruple-cell human chips, daily FIAU 1, 10, 30 μM): ≥ 1 µM | hepatocyte function [2]: no effects | keratin 18 (K-18) (liver injury marker) ([3]; FIAU 1, 10, 30 μM, 10 days): release | miR122 (liver injury marker) ([3]; FIAU 1, 10, 30 μM, 10 days): release | α-GST (liver injury marker) ([3]; FIAU 1, 10, 30 μM, 10 days): release | release of cytokines/chemokines including IP-10 [4]: observed | lipid accumulation (Nile red) ([5]; daily 1, 10, 30 μM for 10 days, human chips): dose-dependent increase | lipid accumulation [6]: no effects | patients with liver failure and death ([7]; Phase II clinical trials): 5/15

albumin synthesis / secretion ([1]; quadruple-cell human chips, 7 days): no abnormalities | hepatocyte morphology [8]: no abnormalities | IP-10 ([4]; MTX 1, 10, 30 μM, vascular channel, 1 day (FIG. 8C)): increases | release of cytokines/chemokines including IP-10 [4]: observed | stellate cell activation, expression of α-SMA (stellate cells; daily 1, 10, 30 μM for 7 days): increased expression
Structure (SMILES): CN(Cc1cnc2nc(N)nc(N)c2n1)c1ccc(C(=O)N[C@@H](CCC(=O)O)C(=O)O)cc1 [MTX, Methotrexate]
lipid accumulation (Nile red) ([5]; daily 1, 10, 30 μM for 7 days): microscopic evidence of lipid accumulation | maximal plasma concentration at which liver injury occurs in humans ([7]; some patient populations): ~1 µM

albumin production ([1]; 30 μM, 14 days, human chips): decreased | formation of ROS [9]: increase | IL-6 release ([4]; 10 μM): significant release | MCP-1 release ([4]; 10 μM): significant release | IL-6 release ([4]; 30 μM (highest dose)): not observed | MCP-1 release ([4]; 30 μM (highest dose)): not observed | lipid droplet accumulation (AdipoRed) ([5]; end of the 2-week treatment): detected | % aSMA positive area from the vascular channel (stellate cells; 10 or 30 uM for 15 days, human Liver-Chips): Not significant | biliary efflux of the MRP2 substrate CDFDA (MRP2): dose-dependent decrease
Structure (SMILES): Cc1cc(OCCCS(C)(=O)=O)cc(C)c1-c1cccc(COc2ccc3c(c2)OC[C@H]3CC(=O)O)c1 [TAK-875]
release of K18 ([3]; 30 μM, 14 days): increased release | markers of hepatocyte function or necrosis (albumin and K18) ([3]; accompanying mitochondrial perturbations, human chips): minimal changes | mitochondrial membrane potential, TMRM distribution [10]: dose-related and time-dependent redistribution | incidence of treatment-related elevations in transaminases (>3-fold rise in upper limit of normal) ([7]; Phase III trials): 2.7%
